Data: patent US9795574B2, “Method for preparing agomelatine cocrystals and composition containing same” (SOONCHUNHYANG UNIVERSITY INDUSTRY ACADEMY COOPERATION …, priority 2014, dated 2017)

Assays:
[1] = Intrinsic dissolution rate (IDR) of pellets, USP equipment 2 (paddle method); format: physicochemical; conditions: for Dissolution rate (intrinsic dissolution rate in terms of ratio): 37° C., 50 rpm, ratio to agomelatine
Description: In order to measure the intrinsic dissolution rate (IDR) of agomelatine and the agomelatine-resorcinol co-crystal, 50 mg of agomelatine and 72.63 mg of the agomelatine-resorcinol co-crystal of Example 1 were molded into a number of pellets having a constant surface area and then subjected to a dissolution testing.
Each powder specimen was put in a 13 mm pellet die (Specac, UK), squeezed down under a weight of 0.5 ton for 2 minutes with a hydraulic compressor and then molded into pellets having a constant surface area of 1.33 cm^2.
The pellets thus obtained were immobilized in 900 ml of a testing solution (pH 1.2 HCl aqueous solution and pH 6.8 phosphate-buffer solution) at 37° C., which solution was stirred with USP equipment 2 (paddle method) operated at 50 rpm. Then, the concentration of the agomelatine released from the pellets was measured.
3 ml of the testing solution was collected each time of 3 min, 5 min, 10 min, 15 min, 20 min, 25 min, 30 min, 45 min, 60 min, 75 min, 90 min, 105 min, and 120 min. The concentration (dissolved amount) of agomelatine in the collected solution was measured with UV-3600 (Shimadzu, Japan) spectrochemical analysis equipment.
FIG. 11 presents the results of the dissolution testing for the agomelatine and the agomelatine-resorcinol co-crystal in an aqueous solution of HCl (pH 1.2) and a phosphate-buffered solution (pH 6.8).

[2] = Thermal stability testing: powder kept at 70° C., then X-ray diffraction analysis; format: physicochemical
Source text: In other words, the antisolvent method of the present invention makes it possible to produce an agomelatine-resorcinol co-crystal with higher stability.

[3] = Medium pH = 1.2 HCl aqueous solution
[4] = Medium pH = 6.8 phosphate-buffer solution

crystal form after storage (XRD) ([2]; same temperature conditions (70° C.), 7 days) | Molecule | Dissolution rate (intrinsic dissolution rate in terms of ratio) [1, 3] | Dissolution rate (intrinsic dissolution rate in terms of ratio) [1, 4] | crystal form after storage (XRD) ([2]; kept at 70° C. for 30 days) | dissolution rate higher than agomelatine ([1]; acidic medium (pH 1.2)) [fold] | dissolution rate higher than agomelatine ([1]; neutral medium (pH 6.8)) [fold]
– | COc1ccc2cccc(CCNC(C)=O)c2c1 [Agomelatine, agomelatine] | 1.0 | 1.0 | – | – | –
deformation occurred | agomelatine-resorcinol co-crystal [Preparation Example 1, reference compound] | – | – | – | – | –
– | agomelatine-resorcinol co-crystal [Example 1] | 2.3 | 3.2 | pure crystal form was maintained | 2.3 | 3.2
